Experimental findings from patent US20230077362A1 (CORTEVA AGRISCIENCE LLC, priority 2019, published 2023) are described below.

The subject of experiment [1] is Beet Armyworm (Spodoptera exigua) ("BAW"), second instar larvae. Nature of the experiment: Bioassay on beet armyworm (BAW), 128-well diet tray assay. Type of experiment: in vivo. The note with it: for pest or weed control at 50 µg/cm2: Spodoptera exigua, read-out: BAW rating; for BAW rating: Table ABC, species BAW, C = not tested, D = no activity noticed. In a few lines: (§1)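 Read-out: percent larval mortality per well, averaged over 8 wells. Incubation 25° C., 14:10 L:D photoperiod, 5–7 days, trays sealed with clear adhesive cover.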

The test system of experiment [2] is Cabbage Looper (Trichoplusia ni) ("CL"), second instar larvae. Nature of the experiment: Bioassay on cabbage looper (CL), 128-well diet tray assay. It counts as in vivo. The note with it: for pest or weed control at 50 µg/cm2: Trichoplusia ni, read-out: CL rating; for CL rating: Table ABC, species CL, C = not tested, D = no activity noticed. In a few lines: as §1

`Cc1ccc(C(C)C)c(N2C(=O)CS/C2=N\C(=O)Nc2ccc(-c3cn(-c4ccc(S(F)(F)(F)(F)F)cc4)cn3)cc2C)c1` [Compound J613, (Z)-1-(3-(2-Isopropyl-5-methylphenyl)-4-oxothiazolidin-2-ylidene)-3-(2-methyl-4-(1-(4-(pentafluoro-λ^6-sulfaneyl)phenyl)-1H-imidazol-4-yl)phenyl)urea]: the pest or weed control at 50 µg/cm2 in experiment [1] and in experiment [2] was 50 to 100% in each case.

In the case of `COC(C)c1ccc(C)cc1N1C(=O)CS/C1=N\C(=O)Nc1ccc(-c2cn(-c3ccc(S(F)(F)(F)(F)F)cc3)cn2)cc1C` (stereo not shown) [Compound J614, (Z)-1-(3-(2-(1-Methoxyethyl)-5-methylphenyl)-4-oxothiazolidin-2-ylidene)-3-(2-methyl-4-(1-(4-(pentafluoro-λ^6-sulfaneyl)phenyl)-1H-imidazol-4-yl)phenyl)urea], the pest or weed control at 50 µg/cm2 in experiment [1] and in experiment [2] was 50 to 100% each time.

Consider `CCOCc1ccc(C)cc1N1C(=O)CS/C1=N\C(=O)Nc1ccc(-c2cn(-c3ccc(S(F)(F)(F)(F)F)cc3)cn2)cc1C` [Compound J615, (Z)-1-(3-(2-(Ethoxymethyl)-5-methylphenyl)-4-oxothiazolidin-2-ylidene)-3-(2-methyl-4-(1-(4-(pentafluoro-λ^6-sulfaneyl)phenyl)-1H-imidazol-4-yl)phenyl)urea], for which the pest or weed control at 50 µg/cm2 in experiment [1] and in experiment [2] was 50 to 100% each time.

Consider `Cc1ccc(COCC(F)(F)F)c(N2C(=O)CS/C2=N\C(=O)Nc2ccc(-c3cn(-c4ccc(S(F)(F)(F)(F)F)cc4)cn3)cc2C)c1` [Compound J616, (Z)-1-(3-(5-Methyl-2-((2,2,2-trifluoroethoxy)methyl)phenyl)-4-oxothiazolidin-2-ylidene)-3-(2-methyl-4-(1-(4-(pentafluoro-λ^6-sulfaneyl)phenyl)-1H-imidazol-4-yl)phenyl)urea], for which the pest or weed control at 50 µg/cm2 in experiment [1] and in experiment [2] was 50 to 100% throughout.

On to `COC(c1ccc(C)cc1N1C(=O)CS/C1=N\C(=O)Nc1ccc(-c2cn(-c3ccc(S(F)(F)(F)(F)F)cc3)cn2)cc1C)C(F)(F)F` (stereo not shown) [Compound J617, (Z)-1-(3-(5-Methyl-2-(2,2,2-trifluoro-1-methoxyethyl)phenyl)-4-oxothiazolidin-2-ylidene)-3-(2-methyl-4-(1-(4-(pentafluoro-λ^6-sulfaneyl)phenyl)-1H-imidazol-4-yl)phenyl)urea], for which the pest or weed control at 50 µg/cm2 in experiment [1] and in experiment [2] was 50 to 100% each time.

Regarding `Cc1cc(-c2cn(-c3ccc(S(F)(F)(F)(F)F)cc3)cn2)ccc1NC(=O)/N=C1\SCC(=O)N1c1cc(N(C)C)ccc1C(C)C` [Compound J618, (Z)-1-(3-(5-(Dimethylamino)-2-isopropylphenyl)-4-oxothiazolidin-2-ylidene)-3-(2-methyl-4-(1-(4-(pentafluoro-λ^6-sulfaneyl)phenyl)-1H-imidazol-4-yl)phenyl)urea], the pest or weed control at 50 µg/cm2 in experiment [1] and in experiment [2] was 50 to 100% throughout.

For `Cc1cc(-c2cn(-c3ccc(S(F)(F)(F)(F)F)cc3)cn2)ccc1NC(=O)/N=C1\SCC(=O)N1c1cc(N(C)C)c(F)cc1C(C)C` [Compound J619, (Z)-1-(3-(5-(Dimethylamino)-4-fluoro-2-isopropylphenyl)-4-oxothiazolidin-2-ylidene)-3-(2-methyl-4-(1-(4-(pentafluoro-λ^6-sulfaneyl)phenyl)-1H-imidazol-4-yl)phenyl)urea], the pest or weed control at 50 µg/cm2 in experiment [1] and in experiment [2] was 50 to 100% each time.

As for `CCOc1ccc(-n2cnc(-c3ccc(NC(=O)/N=C4\SCC(=O)N4c4cc(C)c(C)cc4COCC(F)(F)F)c(F)c3)n2)cc1` [Compound J620], in experiment [1], the BAW rating entry is recorded as “A (50-100)”. Moreover, the CL rating result in experiment [2] was “A (50-100)”.

As for `Cc1ccc(COCc2ccc(F)cc2C(F)(F)F)c(N2C(=O)CS/C2=N\C(=O)Nc2ccc(-c3ncn(-c4ccc(OC(F)(F)F)cc4)n3)cc2F)c1` [Compound J621, (Z)-1-(3-(2-(((4-Fluoro-2-(trifluoromethyl)benzyl)oxy)methyl)-5-methylphenyl)-4-oxothiazolidin-2-ylidene)-3-(2-fluoro-4-(1-(4-(trifluoromethoxy)phenyl)-1H-1,2,4-triazol-3-yl)phenyl)urea], the pest or weed control at 50 µg/cm2 in experiment [1] and in experiment [2] was 50 to 100% throughout.

For the molecule `Cc1ccc(COCc2c(F)c(F)c(F)c(F)c2F)c(N2C(=O)CS/C2=N\C(=O)Nc2ccc(-c3ncn(-c4ccc(OC(F)(F)F)cc4)n3)cc2F)c1` [Compound J622, (Z)-1-(2-Fluoro-4-(1-(4-(trifluoromethoxy)phenyl)-1H-1,2,4-triazol-3-yl)phenyl)-3-(3-(5-methyl-2-(((perfluorophenyl)methoxy)methyl)phenyl)-4-oxothiazolidin-2-ylidene)urea], the pest or weed control at 50 µg/cm2 in experiment [1] and in experiment [2] was 50 to 100% each time.

Turning to `CCOc1ccc(-n2cnc(-c3ccc(NC(=O)/N=C4\SCC(=O)N4c4cc(C)ccc4COCC(F)(F)F)c(F)c3)n2)cc1` [Compound J625], the BAW rating result in experiment [1] was “A (50-100)”. In addition, the CL rating entry in experiment [2] is “A (50-100)”.

`Cc1ccc(COCC(F)(F)F)c(N2C(=O)CS/C2=N\C(=O)Nc2ccc(-c3ncn(-c4ccc(S(F)(F)(F)(F)F)cc4)n3)cc2C(F)(F)F)c1` [Compound J626, (Z)-1-(3-(5-Methyl-2-((2,2,2-trifluoroethoxy)methyl)phenyl)-4-oxothiazolidin-2-ylidene)-3-(4-(1-(4-(pentafluoro-λ^6-sulfaneyl)phenyl)-1H-1,2,4-triazol-3-yl)-2-(trifluoromethyl)phenyl)urea]: the pest or weed control at 50 µg/cm2 in experiment [1] and in experiment [2] was 50 to 100% in each case.

As to `CCOCc1ccc(C)cc1N1C(=O)CS/C1=N\C(=O)Nc1ccc(-c2ncn(-c3ccc(S(F)(F)(F)(F)F)cc3)n2)cc1C(F)(F)F` [Compound J627, (Z)-1-(3-(2-(Ethoxymethyl)-5-methylphenyl)-4-oxothiazolidin-2-ylidene)-3-(4-(1-(4-(pentafluoro-λ^6-sulfaneyl)phenyl)-1H-1,2,4-triazol-3-yl)-2-(trifluoromethyl)phenyl)urea], the pest or weed control at 50 µg/cm2 in experiment [1] and in experiment [2] was 50 to 100% throughout.

Take `CCCc1ccc(C)cc1N1C(=O)CS/C1=N\C(=O)Nc1ccc(-c2ncn(-c3ccc(S(F)(F)(F)(F)F)cc3)n2)cc1C(F)(F)F` [Compound J628, (Z)-1-(3-(5-Methyl-2-propylphenyl)-4-oxothiazolidin-2-ylidene)-3-(4-(1-(4-(pentafluoro-λ^6-sulfaneyl)phenyl)-1H-1,2,4-triazol-3-yl)-2-(trifluoromethyl)phenyl)urea]: the pest or weed control at 50 µg/cm2 in experiment [1] and in experiment [2] was 50 to 100% throughout.

`Cc1ccc(OCCC(F)(F)F)c(N2C(=O)CS/C2=N\C(=O)Nc2ccc(-c3ncn(-c4ccc(S(F)(F)(F)(F)F)cc4)n3)cc2C(F)(F)F)c1` [Compound J629, (Z)-1-(3-(5-Methyl-2-(3,3,3-trifluoropropoxy)phenyl)-4-oxothiazolidin-2-ylidene)-3-(4-(1-(4-(pentafluoro-λ^6-sulfaneyl)phenyl)-1H-1,2,4-triazol-3-yl)-2-(trifluoromethyl)phenyl)urea]: the pest or weed control at 50 µg/cm2 in experiment [1] and in experiment [2] was 50 to 100% in each case.

Turning to `CC(C)c1ccc(N(C)C)cc1N1C(=O)CS/C1=N\C(=O)Nc1ccc(-c2ncn(-c3ccc(S(F)(F)(F)(F)F)cc3)n2)cc1C(F)(F)F` [Compound J630, (Z)-1-(3-(5-(Dimethylamino)-2-isopropylphenyl)-4-oxothiazolidin-2-ylidene)-3-(4-(1-(4-(pentafluoro-λ^6-sulfaneyl)phenyl)-1H-1,2,4-triazol-3-yl)-2-(trifluoromethyl)phenyl)urea], the pest or weed control at 50 µg/cm2 in experiment [1] and in experiment [2] was 50 to 100% each time.

Consider `CCOC(C)c1ccc(C)cc1N1C(=O)CS/C1=N\C(=O)Nc1ccc(-c2ncn(-c3ccc(S(F)(F)(F)(F)F)cc3)n2)cc1C(F)(F)F` (stereo not shown) [Compound J631, (Z)-1-(3-(2-(1-Ethoxyethyl)-5-methylphenyl)-4-oxothiazolidin-2-ylidene)-3-(4-(1-(4-(pentafluoro-λ^6-sulfaneyl)phenyl)-1H-1,2,4-triazol-3-yl)-2-(trifluoromethyl)phenyl)urea], for which the pest or weed control at 50 µg/cm2 in experiment [1] and in experiment [2] was 50 to 100% throughout.

Take `Cc1cc(COCC(F)(F)F)c(N2C(=O)CS/C2=N\C(=O)Nc2ccc(-c3ncn(-c4ccc(S(F)(F)(F)(F)F)cc4)n3)cc2C(F)(F)F)cc1C` [Compound J632, (Z)-1-(3-(4,5-Dimethyl-2-((2,2,2-trifluoroethoxy)methyl)phenyl)-4-oxothiazolidin-2-ylidene)-3-(4-(1-(4-(pentafluoro-λ^6-sulfaneyl)phenyl)-1H-1,2,4-triazol-3-yl)-2-(trifluoromethyl)phenyl)urea]: the pest or weed control at 50 µg/cm2 in experiment [1] and in experiment [2] was 50 to 100% in each case.

`COc1cc(COCC(F)(F)F)c(N2C(=O)CS/C2=N\C(=O)Nc2ccc(-c3ncn(-c4ccc(S(F)(F)(F)(F)F)cc4)n3)cc2C(F)(F)F)cc1OC` [Compound J633, (Z)-1-(3-(4,5-Dimethoxy-2-((2,2,2-trifluoroethoxy)methyl)phenyl)-4-oxothiazolidin-2-ylidene)-3-(4-(1-(4-(pentafluoro-λ^6-sulfaneyl)phenyl)-1H-1,2,4-triazol-3-yl)-2-(trifluoromethyl)phenyl)urea]: the pest or weed control at 50 µg/cm2 in experiment [1] and in experiment [2] was 50 to 100% throughout.

Consider `CCc1ccc(COCC(F)(F)F)c(N2C(=O)CS/C2=N\C(=O)Nc2ccc(-c3ncn(-c4ccc(OC(F)(F)F)cc4)n3)cc2F)c1` [Compound J634], for which the BAW rating result in experiment [1] is given as “A (50-100)”. Also, in experiment [2], the CL rating result is “A (50-100)”.
